In one experiment the target is ACE (Homo sapiens, UniProt P12821). The experiment is described as follows: in vitro inhibitory activity on ACE. Format: biochemical. The settings on record: 0.016 unit/ml ACE; 2.0 mM hippuryl-L-histidyl-L-leucine, pH 8.4, 37°C, 30 minutes. The protocol:
The inhibitory activity on ACE was measured according to the method described in Biochem. Pharmacolo., 20, 1637 (1971). That is, a 100 mM boric acid/sodium carbonate buffer solution (pH 8.4) containing 2.0 mM of hippuryl-L-histidyl-L-leucine, 0.016 unit/ml of ACE, 0.8 M of NaCl, and a predetermined amount of the sample compound was prepared and the reaction was carried out at 37°C for 30 minutes. The amount of hippuric acid produced by the ACE activity was measured to determine the inhibitory activity.

Another experiment addresses T1, NEP (Rattus norvegicus, UniProt P07861).
T1 construct: The fractions with the NEP activity were collected, and was used as the enzyme source for the test; from tissue; host or cells: kidneys of male SD rats
T1 sequence (P07861 1-750): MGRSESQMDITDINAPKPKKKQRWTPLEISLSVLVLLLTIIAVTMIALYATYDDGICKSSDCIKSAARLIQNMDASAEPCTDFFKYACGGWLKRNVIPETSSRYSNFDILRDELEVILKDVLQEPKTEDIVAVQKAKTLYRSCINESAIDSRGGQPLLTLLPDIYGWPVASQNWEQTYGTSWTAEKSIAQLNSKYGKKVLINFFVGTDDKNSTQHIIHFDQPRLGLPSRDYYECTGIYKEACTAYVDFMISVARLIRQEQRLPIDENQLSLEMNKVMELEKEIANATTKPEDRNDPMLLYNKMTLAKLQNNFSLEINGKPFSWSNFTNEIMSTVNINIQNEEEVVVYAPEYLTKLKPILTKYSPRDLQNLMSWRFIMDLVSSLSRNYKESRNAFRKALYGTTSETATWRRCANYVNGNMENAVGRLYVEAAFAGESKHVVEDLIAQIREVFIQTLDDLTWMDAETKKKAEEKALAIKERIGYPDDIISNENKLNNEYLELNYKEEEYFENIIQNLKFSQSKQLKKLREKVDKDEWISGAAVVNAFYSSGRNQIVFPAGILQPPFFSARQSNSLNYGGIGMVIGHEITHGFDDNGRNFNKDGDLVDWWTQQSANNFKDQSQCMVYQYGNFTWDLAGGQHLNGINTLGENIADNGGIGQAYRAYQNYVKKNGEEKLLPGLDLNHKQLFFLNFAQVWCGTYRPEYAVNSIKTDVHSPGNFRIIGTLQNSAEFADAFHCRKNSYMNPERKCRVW
Nature of the experiment: in vitro inhibitory activity on NEP. Format: biochemical. The settings on record: NEP from kidneys of male SD rats; 0.4 mM glutaryl-Ala-Ala-Phe-4-methoxy-β-naphthylamide, pH 7.4, 37°C, 1 hour. The protocol: NEP was prepared as follows in accordance with the process as described in Peptide, 9, 173 (1988). Kidneys of male SD rats were homogenized with 10 times by volume of a tris/HCl buffer solution (pH 7.0) containing mannitol and magnesium chloride. The homogenate was centrifuged (700 × g) to give a supernatant liquid. To the supernatant liquid was added n-octyl-β-D-glucoside in an amount to give a final concentration of 1 %, followed by stirring at 4°C for 1 hour, thereby solubilizing the enzyme. The solution was dialyzed against 5 mM HEPES/0.1% Triton (pH 7.4). The inner liquid was applied to a DE-52 column (2.5 cm i.d. × 15 cm) equilibrated with 5 mM HEPES/0.1% Triton (pH 7.4). The column was eluted with 500 ml of a NaCl solution having a linear concentration gradient of 0-300 mM. The fractions with the NEP activity were collected, and was used as the enzyme source for the test.
The inhibitory activity on NEP was measured according to the method described in Biochemistry, 20, 4942 (1981). That is, 250 µl of a 50 mM tris/HCl buffer solution (pH 7.4) containing 0.4 mM of glutaryl-Ala-Ala-Phe-4-methoxy-β-naphthylamide, 0.25 unit/ml of leucine aminopeptidase, a predetermined amount of the sample compound and NEP was prepared and the reaction was carried out at 37°C for 1 hour. The amount of 4-methoxy-β-naphthylamide produced by the NEP activity was measured to determine the inhibitory activity.

Chain of ACE (P12821 30-1306, species assumed): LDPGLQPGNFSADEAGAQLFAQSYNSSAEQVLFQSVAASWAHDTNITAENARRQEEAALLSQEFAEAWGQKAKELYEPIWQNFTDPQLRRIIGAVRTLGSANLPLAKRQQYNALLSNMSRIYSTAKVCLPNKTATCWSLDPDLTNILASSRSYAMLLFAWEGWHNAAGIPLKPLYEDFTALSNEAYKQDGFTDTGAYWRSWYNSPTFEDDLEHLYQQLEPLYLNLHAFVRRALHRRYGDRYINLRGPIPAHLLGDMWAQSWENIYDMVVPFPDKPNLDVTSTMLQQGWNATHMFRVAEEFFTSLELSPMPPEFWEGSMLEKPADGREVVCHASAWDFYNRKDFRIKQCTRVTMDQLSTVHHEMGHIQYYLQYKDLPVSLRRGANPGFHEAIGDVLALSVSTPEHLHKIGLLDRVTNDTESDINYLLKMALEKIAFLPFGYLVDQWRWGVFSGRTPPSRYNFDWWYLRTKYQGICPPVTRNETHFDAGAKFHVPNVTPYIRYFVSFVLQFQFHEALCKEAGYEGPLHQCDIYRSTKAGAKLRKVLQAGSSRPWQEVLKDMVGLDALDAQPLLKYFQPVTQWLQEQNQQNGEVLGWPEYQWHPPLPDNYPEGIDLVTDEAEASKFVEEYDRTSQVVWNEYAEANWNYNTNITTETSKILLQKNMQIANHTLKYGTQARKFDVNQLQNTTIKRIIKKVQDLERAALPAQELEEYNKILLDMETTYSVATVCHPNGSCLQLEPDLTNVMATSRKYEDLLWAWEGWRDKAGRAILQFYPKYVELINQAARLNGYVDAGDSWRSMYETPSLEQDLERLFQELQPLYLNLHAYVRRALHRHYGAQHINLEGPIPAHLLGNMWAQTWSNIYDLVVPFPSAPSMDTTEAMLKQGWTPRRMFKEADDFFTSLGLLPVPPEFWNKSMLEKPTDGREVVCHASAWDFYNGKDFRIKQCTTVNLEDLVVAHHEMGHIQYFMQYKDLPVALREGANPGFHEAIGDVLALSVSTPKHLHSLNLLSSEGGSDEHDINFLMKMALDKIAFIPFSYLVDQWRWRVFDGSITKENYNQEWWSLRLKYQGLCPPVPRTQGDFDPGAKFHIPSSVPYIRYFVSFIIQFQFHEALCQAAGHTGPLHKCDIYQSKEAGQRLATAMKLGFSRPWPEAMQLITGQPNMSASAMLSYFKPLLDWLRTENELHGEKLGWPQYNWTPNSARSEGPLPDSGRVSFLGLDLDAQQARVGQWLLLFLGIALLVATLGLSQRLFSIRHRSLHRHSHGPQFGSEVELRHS

As a reminder, the IC50 is the midpoint of a concentration-inhibition curve. For `O=C(O)CN1C(=O)N(C(CS)Cc2ccccc2)C(=O)C1c1ccccc1` (stereo not shown) [Example 52, 1-(carboxymethyl)-5-phenyl-3-(1-mercapto-3-phenyl-2-propyl)hydantoin], the figures for the IC50 on ACE and against NEP were 450 nM and 61 nM, respectively.

Consider `CC(C)CC(CS)N1C(=O)N(CC(=O)O)C2(CCCC2)C1=O` (stereo not shown) [Example 67, 1-(carboxymethyl)-3-(1-mercapto-4-methyl-2-pentyl)hydantoin-5-spirocyclopentane], for which the IC50 against ACE worked out at 510 nM; on NEP, 160 nM.

The values above are taken from EP0640594A1, “Hydantoin derivative as metalloprotease inhibitor” (FUJIREBIO INC., priority 1993, dated 1995).
